Measurements reported in PMC6156078, “Thalidomide promotes degradation of SALL4, a transcription factor implicated in Duane Radial Ray syndrome” (eLife, 2018).

Columns and labels:
[1] = target: DDB1∆B-CRBN_(Spy-BodipyFL), Q16531;Q96SW2; assay: TR-FRET; details: terbium-streptavidin 4 nM, read off a plot
CYR61 = assay: TMT proteomics H9 hESC: CYR61 abundance; assay type: cell-based, human; details: H9 hES cells, 5 h vs DMSO; thalidomide 10 µM
Description: (§1) We established a mass spectrometry-based workflow (Figure 1—figure supplement 1A) to detect IMiD-induced protein degradation in hESC.
(§2) Proteins were precipitated using methanol/chloroform.

PPA1 = assay: TMT proteomics H9 hESC: PPA1 abundance; assay type: cell-based, human; details: H9 hES cells, 5 h vs DMSO; thalidomide 10 µM, lenalidomide 5 µM
Description: as §1, §2

ZNF692 = ZNF692 (Homo sapiens, UniProt Q96SW2+Q9BU19); assay: TMT proteomics Kelly cells: ZNF692 abundance; details: 5 h vs DMSO, thalidomide 10 µM, lenalidomide 5 µM, pomalidomide 1 µM
[2] = tested on: Flag-hsSALL4^G600A, hsSALL4^G600N; assay: Western blot of transfected Flag-hsSALL4 G600A/G600N in Kelly cells; assay type: cell-based, human; details: thalidomide, 24 h
Method: (§3) For transient transfection, 0.2 million cells were seeded per well in a 12 well plate on day 1. On day 2, cells were transfected with 200–300 ng of plasmid (pNTM-Flag containing gene of interest) using 2 µL of lipofectamine 2000 transfection reagent (Invitrogen). On day 3, the desired concentration of IMiD was added to each well and cells were harvested after 24 h for western blot analysis using the protocol described above.

[3] = 2013, cited from earlier work
zebrafish embryos = tested on: zebrafish embryos; set-up: method as in Ito et al., 2010; details: ref Ito et al., 2010; cited from earlier work
SALL4 [4] = target: T1, SALL4 (Homo sapiens, UniProt Q9UJQ4); assay: TMT proteomics Kelly cells: SALL4 abundance; details: 5 h vs DMSO, thalidomide 10 µM, lenalidomide 5 µM, pomalidomide 1 µM
ZNF827 = ZNF827 (Homo sapiens, UniProt Q17R98+Q96SW2); assay: TMT proteomics Kelly cells: ZNF827 abundance; details: 5 h vs DMSO, thalidomide 10 µM, lenalidomide 5 µM, pomalidomide 1 µM
SALL4 [5] = assay: Western blot of SALL4 in CRBN-/- Kelly and HEK293T cells; assay type: cell-based, human; details: increasing concentrations, 24 h
PPP3R1 = assay: TMT proteomics MM1s cells: PPP3R1 abundance; assay type: cell-based, human; details: 5 h vs DMSO, thalidomide 10 µM
Description: as §2

[6] = tested on: Flag-hsSALL4^G416A, Flag-hsSALL4^G416N; assay: Western blot of transfected Flag-hsSALL4 G416A/G416N in Kelly cells; assay type: cell-based, human; details: thalidomide, 24 h
Method: as §3

SALL4 [7] = target: T1, SALL4; assay: TMT proteomics H9 hESC: SALL4 abundance; assay type: cell-based; details: H9 hES cells, 5 h vs DMSO; thalidomide 10 µM, lenalidomide 5 µM, pomalidomide 1 µM
Description: as §1, §2

RAB28 = RAB28 (Homo sapiens, UniProt P51157); assay: TMT proteomics MM1s cells: RAB28 abundance; details: 5 h vs DMSO, thalidomide 10 µM, lenalidomide 5 µM, pomalidomide 1 µM
SALL4 mRNA = assay: Quantitative RT-PCR of total SALL4 mRNA in H9 hES cells; assay type: cell-based, human; details: 10 µM thalidomide, 24 h vs DMSO
Method: RNA was isolated using the RNeasy Plus mini kit (Qiagen) and cDNA created by reverse transcription using ProtoScript II reverse transcriptase (NEB) following the manufacturer’s instructions. The following primer sets from IDT were used with SYBR Green Master Mix (Applied Biosystems) to probe both GAPDH and total SALL4 levels:
Analysis was performed on a CFX Connect Real-Time PCR System (Bio-Rad) in a white 96-well PCR plate. Relative expression levels were calculated using the ΔΔCT method.

[8] = target: Flag-mmSALL4 containing a humanized ZnF2 (Y415F, P418S, I419V, L430F, Q435H) (UniProt Q8BX22+Q96SW2, I419V/L434F/P418S/Q435H/Y415F); assay: Western blot of Flag-mmSALL4 with humanized ZnF2 in Kelly cells; assay type: cell-based, mouse; details: thalidomide, 24 h
Method: as §3

IKZF3 = IKZF3 (Homo sapiens, UniProt Q96SW2+Q9UKT9); assay: TMT proteomics MM1s cells: IKZF3 abundance; details: 5 h vs DMSO, thalidomide 10 µM, lenalidomide 5 µM, pomalidomide 1 µM
mmSALL4 = target: T2, mmSALL4 (Mus musculus, UniProt Q8BX22); assay: Western blot of mmSALL4 in mouse embryonic stem cells; assay type: cell-based; details: increasing concentrations, 24 h
T2 construct: endogenous in cells; host or cells: TC1 mouse embryonic stem cells
T2 sequence (Q8BX22 whole entry): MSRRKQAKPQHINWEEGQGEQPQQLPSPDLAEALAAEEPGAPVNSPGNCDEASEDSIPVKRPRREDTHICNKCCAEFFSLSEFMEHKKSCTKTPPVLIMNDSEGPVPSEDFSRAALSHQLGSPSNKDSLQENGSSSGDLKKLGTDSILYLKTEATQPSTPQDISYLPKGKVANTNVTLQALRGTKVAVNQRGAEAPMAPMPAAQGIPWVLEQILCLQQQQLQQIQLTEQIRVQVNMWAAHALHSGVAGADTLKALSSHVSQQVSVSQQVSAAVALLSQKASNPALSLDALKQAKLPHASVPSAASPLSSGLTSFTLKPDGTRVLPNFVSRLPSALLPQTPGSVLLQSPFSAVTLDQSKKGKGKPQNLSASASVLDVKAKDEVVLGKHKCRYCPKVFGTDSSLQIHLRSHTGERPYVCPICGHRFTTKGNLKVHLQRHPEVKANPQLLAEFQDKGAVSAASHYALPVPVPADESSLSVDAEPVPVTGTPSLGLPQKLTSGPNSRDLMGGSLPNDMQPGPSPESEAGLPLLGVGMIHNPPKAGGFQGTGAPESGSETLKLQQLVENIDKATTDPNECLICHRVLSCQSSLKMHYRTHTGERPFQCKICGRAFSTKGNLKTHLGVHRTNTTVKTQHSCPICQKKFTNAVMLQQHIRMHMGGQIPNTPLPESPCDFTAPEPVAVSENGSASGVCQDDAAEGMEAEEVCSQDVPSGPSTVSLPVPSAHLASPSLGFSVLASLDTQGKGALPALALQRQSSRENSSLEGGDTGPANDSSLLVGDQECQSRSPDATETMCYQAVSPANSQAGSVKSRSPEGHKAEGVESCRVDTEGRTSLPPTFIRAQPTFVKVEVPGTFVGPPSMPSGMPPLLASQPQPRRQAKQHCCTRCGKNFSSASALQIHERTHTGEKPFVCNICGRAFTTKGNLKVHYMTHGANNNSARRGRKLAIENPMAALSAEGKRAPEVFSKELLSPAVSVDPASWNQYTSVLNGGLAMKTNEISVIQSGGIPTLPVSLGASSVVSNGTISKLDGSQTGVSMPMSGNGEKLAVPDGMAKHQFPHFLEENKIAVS

VRTN = target: T3, VRTN (Homo sapiens, UniProt Q9H8Y1); assay: TMT proteomics H9 hESC: VRTN abundance; assay type: cell-based; details: H9 hES cells, 5 h vs DMSO; thalidomide 10 µM, pomalidomide 1 µM
T3 construct: endogenous in cells; host or cells: H9 hESC
T3 sequence (Q9H8Y1 whole entry): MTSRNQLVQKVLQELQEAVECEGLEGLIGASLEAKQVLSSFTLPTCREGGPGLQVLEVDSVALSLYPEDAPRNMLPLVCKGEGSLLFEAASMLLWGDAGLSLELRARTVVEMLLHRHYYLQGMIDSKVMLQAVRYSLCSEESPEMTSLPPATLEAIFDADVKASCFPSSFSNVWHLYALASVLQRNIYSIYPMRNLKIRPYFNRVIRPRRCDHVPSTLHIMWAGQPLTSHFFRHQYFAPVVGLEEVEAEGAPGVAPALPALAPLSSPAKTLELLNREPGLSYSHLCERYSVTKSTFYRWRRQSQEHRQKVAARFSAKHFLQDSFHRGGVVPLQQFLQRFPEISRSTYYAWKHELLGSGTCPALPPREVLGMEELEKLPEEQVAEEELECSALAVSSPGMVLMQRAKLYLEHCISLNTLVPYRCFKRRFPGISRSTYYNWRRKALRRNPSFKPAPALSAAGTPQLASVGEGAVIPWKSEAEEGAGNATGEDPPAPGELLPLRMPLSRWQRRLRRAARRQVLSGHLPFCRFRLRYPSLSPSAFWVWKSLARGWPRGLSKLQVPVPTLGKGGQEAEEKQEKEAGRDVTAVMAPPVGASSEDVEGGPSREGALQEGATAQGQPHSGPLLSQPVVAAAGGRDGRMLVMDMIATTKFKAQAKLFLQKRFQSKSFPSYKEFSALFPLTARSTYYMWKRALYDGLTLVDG
Description: as §1, §2

chicken embryos = tested on: chicken embryos; set-up: method as in Ito et al., 2010; details: direct application to the limb buds, ref Ito et al., 2010; cited from earlier work
SALL4 [9] = target: T1, SALL4; assay: Western blot of SALL4 in H9 hESC; assay type: cell-based; set-up: endogenous in cells; host or cells: Kelly, H9 hESC, SK-N-DZ cells; details: increasing doses, 24 h
RPS17; RPS17L = assay: TMT proteomics H9 hESC: RPS17 abundance; assay type: cell-based, human; details: H9 hES cells, 5 h vs DMSO; thalidomide 10 µM
Description: as §1, §2

ZFP91 [10] = target: T4, ZFP91 (Homo sapiens, UniProt Q96JP5+Q96SW2); assay: TMT proteomics Kelly cells: ZFP91 abundance; details: 5 h vs DMSO, thalidomide 10 µM, lenalidomide 5 µM, pomalidomide 1 µM
SALL4 [11] = target: T1, SALL4; assay: Western blot of SALL4 in Kelly, SK-N-DZ, HEK293T and H661 cells; details: increasing concentrations, 24 h
ACAD9 = assay: TMT proteomics Kelly cells: ACAD9 abundance; assay type: cell-based, human; details: 5 h vs DMSO, thalidomide 10 µM
Description: as §2

ZFP91 [12] = target: T4, ZFP91; assay: TMT proteomics MM1s cells: ZFP91 abundance; details: 5 h vs DMSO, thalidomide 10 µM, lenalidomide 5 µM, pomalidomide 1 µM
[13] = tested on: IMiD-dependent neo-substrates; assay: TMT proteomics profiling of IMiD-dependent neo-substrates (hESC, Kelly, SK-N-DZ, MM1s); assay type: cell-based, human
Description: as §1, §2

[14] = target: hsSALL4ZnF2 / DDB1∆B-CRBN (Homo sapiens, UniProt Q96SW2+Q9UJQ4); assay: TR-FRET IMiD-dependent binding of SALL4ZnF2 to CRBN; details: DDB1∆B-CRBN 200 nM, hsSALL4ZnF2 100 nM
Description: The TR-FRET signal of each data point was extracted by calculating the 520/490 nm ratios.

IKZF1 = IKZF1 (Homo sapiens, UniProt Q13422+Q96SW2); assay: TMT proteomics MM1s cells: IKZF1 abundance; details: 5 h vs DMSO, thalidomide 10 µM, lenalidomide 5 µM, pomalidomide 1 µM
Flag-hsSALL4^WT = Flag-hsSALL4^WT (Homo sapiens, UniProt Q9UJQ4); assay: Western blot of transfected Flag-hsSALL4 WT in Kelly cells; assay type: cell-based; details: 24 h
Chain of Flag-hsSALL4^WT (Q9UJQ4 whole entry): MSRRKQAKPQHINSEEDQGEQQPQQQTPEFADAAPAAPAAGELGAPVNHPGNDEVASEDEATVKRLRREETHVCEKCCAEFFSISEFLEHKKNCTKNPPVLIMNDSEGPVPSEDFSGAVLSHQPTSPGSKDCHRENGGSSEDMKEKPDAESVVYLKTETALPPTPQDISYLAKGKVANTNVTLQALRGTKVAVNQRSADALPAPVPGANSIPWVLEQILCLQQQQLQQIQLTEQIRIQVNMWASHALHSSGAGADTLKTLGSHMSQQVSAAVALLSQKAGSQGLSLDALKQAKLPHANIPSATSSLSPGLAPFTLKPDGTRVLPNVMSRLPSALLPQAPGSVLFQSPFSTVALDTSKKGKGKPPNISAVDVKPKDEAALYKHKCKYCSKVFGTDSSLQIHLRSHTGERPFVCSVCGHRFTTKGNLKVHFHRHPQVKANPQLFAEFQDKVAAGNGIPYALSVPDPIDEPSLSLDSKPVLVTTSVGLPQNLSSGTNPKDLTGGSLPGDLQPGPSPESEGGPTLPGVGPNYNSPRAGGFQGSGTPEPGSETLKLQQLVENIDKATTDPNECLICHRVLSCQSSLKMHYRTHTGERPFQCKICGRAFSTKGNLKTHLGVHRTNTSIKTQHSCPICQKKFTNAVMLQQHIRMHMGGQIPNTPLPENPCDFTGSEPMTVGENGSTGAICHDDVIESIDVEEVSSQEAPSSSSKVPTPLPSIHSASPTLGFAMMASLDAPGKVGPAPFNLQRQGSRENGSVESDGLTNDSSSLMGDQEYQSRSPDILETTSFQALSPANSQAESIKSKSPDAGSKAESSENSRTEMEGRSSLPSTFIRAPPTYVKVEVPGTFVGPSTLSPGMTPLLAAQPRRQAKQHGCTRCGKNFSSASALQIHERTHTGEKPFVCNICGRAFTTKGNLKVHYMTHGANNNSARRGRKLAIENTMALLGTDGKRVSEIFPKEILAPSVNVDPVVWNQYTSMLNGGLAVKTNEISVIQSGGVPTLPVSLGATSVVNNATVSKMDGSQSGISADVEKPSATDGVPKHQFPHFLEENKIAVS
Method: as §3

SALL4 [15] = assay: Western blot of SALL4: thalidomide with proteasome/NEDD8/UBA1 inhibitor co-treatment; details: Kelly, HEK293T, SK-N-DZ cells; thalidomide + 5 µM bortezomib, 5 µM MLN4924 or 0.5 µM MLN7243, 24 h
[16] = value at the highest DDB1∆B-CRBN concentration (about 12.8 µM), SALL4 ZnF1-2 100 nM, thalidomide 50 µM, parent: est. 45

Q: What does the source list for “_(Strep-BirA)hsSALL4_(402-436) (ZnF2) (from UniProt Q9UJQ4) G416A”?
A: response ([1]; value at the highest lenalidomide dose (log[Len] about -4.4 M), DDB1∆B-CRBN 200 nM, SALL4 ZnF2 100 nM, parent: est. 0.47): 0.075 520/490; response ([1]; value at the highest pomalidomide dose (log[Pom] about -4.4 M), DDB1∆B-CRBN 200 nM, SALL4 ZnF2 100 nM, parent: est. 0.97): 0.09 520/490

Q: Which results are given for `O=C1CCC(N2C(=O)c3ccccc3C2=O)C(=O)N1` (stereo not shown) [thalidomide]?
A: logFC CYR61 (CYR61): 0.4402; logFC PPA1 (PPA1): -0.1282; logFC ZNF692 (ZNF692): -2.248; degradation of Flag-SALL4 with G600A or G600N mutations in ZnF4 [2]: readily degraded; plasma concentration in humans ([3]; ref Bai et al., Dahut et al., 2009): ≤ 10 µM; Cmax ([3]; typical dose 200–400 mg thalidomide, 25 mg lenalidomide, 2 mg pomalidomide, ref Chen et al., 2017, Hoffmann et al., Teo et al., 2004, read-out: maximum plasma concentration (Cmax)): 5 to 10 µM; dose found to be teratogenic (zebrafish embryos): 400 µM; logFC SALL4 (SALL4 [4]): -1.628; logFC ZNF827 (ZNF827): -0.4132; SALL4 degradation in CRBN-/- cells (SALL4 [5]): no degradation of SALL4 was observed; logFC PPP3R1 (PPP3R1): -0.2263; degradation of Flag-SALL4 with G416A or G416N mutations in ZnF2 [6]: rendered SALL4 stable; logFC SALL4 (SALL4 [7]): -1.582; logFC RAB28 (RAB28): -0.4948; SALL4 mRNA level (qPCR, normalized to GAPDH) (SALL4 mRNA): upregulates SALL4 mRNA; SALL4 mRNA level (qPCR, normalized to GAPDH) (SALL4 mRNA; listed as Thalidomide): did not influence the expression of SALL4 mRNA; degradation of mmSALL4 with humanized ZnF2 domain [8]: induce thalidomide-mediated mouse SALL4 degradation; logFC IKZF3 (IKZF3): -0.3448; degradation of mmSALL4 in mESC (mmSALL4): does not promote degradation of mmSALL4; logFC VRTN (VRTN): -0.4098; dose found to be teratogenic (chicken embryos): 400 µM; SALL4 protein levels (western blot) (SALL4 [9]): dose-dependent decrease in protein levels; logFC RPS17; RPS17L (RPS17; RPS17L): -0.1321; logFC ZFP91 (ZFP91 [10]): -0.2749; SALL4 protein levels (western blot) (SALL4 [11]): dose-dependent decrease in SALL4 protein levels; logFC ACAD9 (ACAD9): 0.09357; logFC ZFP91 (ZFP91 [12]): -0.6875; number of substrates identified (rank order) ([13]; H9 hESC proteomics): Thal < Len << Pom; substrates robustly degraded (each drug in addition to the preceding one) ([13]; proteomics across hESC, MM1s, Kelly, SK-N-DZ cells): ZNF692, SALL4, and the ubiquitin ligase RNF166; rank order in binding observed with ZnF2 [14]: Pom >Thal >> Len; logFC IKZF1 (IKZF1): -0.3052; degradation of ectopically expressed Flag-hsSALL4 wild type (Flag-hsSALL4^WT): readily degraded

Q: For `CC(C)C[C@H](NC(=O)[C@H](Cc1ccccc1)NC(=O)c1cnccn1)B(O)O` [bortezomib], which “effect of co-treatment on IMiD-induced SALL4 degradation” value (SALL4 [15]) is on record?
A: abrogated

Q: With “_(Strep-BirA)hsSALL4_(378-438) (ZnF1-2) (from UniProt Q9UJQ4) G416N” as the compound, how does the response [1, 16] read?
A: 6 520/490

Q: Which response [1, 16] does the source give for “_(Strep-BirA)hsSALL4_(378-438) (ZnF1-2) (from UniProt Q9UJQ4) S388N” here?
A: 45 520/490

Q: What about the response ([1]; value at the highest lenalidomide dose (log[Len] about -4.4 M), DDB1∆B-CRBN 200 nM, SALL4 ZnF1-2 100 nM, parent: est. 2.6) of the same compound?
A: 1.6 520/490

Q: And the response ([1]; value at the highest pomalidomide dose (log[Pom] about -4.4 M), DDB1∆B-CRBN 200 nM, SALL4 ZnF1-2 100 nM, parent: est. 4.1)?
A: 2.6 520/490

Q: What about the response ([1]; value at the highest thalidomide dose (log[Thal] about -4.4 M), DDB1∆B-CRBN 200 nM, SALL4 ZnF1-2 100 nM, parent: est. 3.7) of the same compound?
A: 2.2 520/490
